Where two headings read alike, the source gives them in different places.
How the values were obtained:
[1] = target: mouse CYP2A5 (Mus musculus (Mouse), UniProt P20852); assay: Inhibition of mouse CYP2A5; assay type: biochemical; conditions: read-out: IC50 mCYP2A5
[2] = target: T1, CYP2A13 (Homo sapiens (Human), UniProt Q16696); assay: Inhibition of human CYP2A13; conditions: for inhibition at 1 µM: human
[3] = target: CYP2C9 (Homo sapiens (Human), UniProt P11712); assay: CYP2C9 Vivid blue substrate O-dealkylation inhibition; assay type: biochemical
CYP2C9, sequence (P11712 whole entry): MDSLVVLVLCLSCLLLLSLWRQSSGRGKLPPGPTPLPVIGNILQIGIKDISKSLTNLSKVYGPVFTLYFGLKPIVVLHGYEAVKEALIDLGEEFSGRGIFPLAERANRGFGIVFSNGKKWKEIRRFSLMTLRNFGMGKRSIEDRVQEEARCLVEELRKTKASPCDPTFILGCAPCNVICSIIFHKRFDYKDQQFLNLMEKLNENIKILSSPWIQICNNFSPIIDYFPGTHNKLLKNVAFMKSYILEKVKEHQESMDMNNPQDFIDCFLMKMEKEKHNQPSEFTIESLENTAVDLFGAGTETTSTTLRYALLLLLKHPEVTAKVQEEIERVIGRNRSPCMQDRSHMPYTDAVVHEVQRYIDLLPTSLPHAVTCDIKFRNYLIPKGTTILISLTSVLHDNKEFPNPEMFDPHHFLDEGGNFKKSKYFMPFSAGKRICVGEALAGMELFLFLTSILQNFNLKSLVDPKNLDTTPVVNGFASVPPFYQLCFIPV

[4] = target: CYP3A4 (Homo sapiens (Human), UniProt P08684); assay: in vitro
CYP3A4, sequence (P08684 whole entry): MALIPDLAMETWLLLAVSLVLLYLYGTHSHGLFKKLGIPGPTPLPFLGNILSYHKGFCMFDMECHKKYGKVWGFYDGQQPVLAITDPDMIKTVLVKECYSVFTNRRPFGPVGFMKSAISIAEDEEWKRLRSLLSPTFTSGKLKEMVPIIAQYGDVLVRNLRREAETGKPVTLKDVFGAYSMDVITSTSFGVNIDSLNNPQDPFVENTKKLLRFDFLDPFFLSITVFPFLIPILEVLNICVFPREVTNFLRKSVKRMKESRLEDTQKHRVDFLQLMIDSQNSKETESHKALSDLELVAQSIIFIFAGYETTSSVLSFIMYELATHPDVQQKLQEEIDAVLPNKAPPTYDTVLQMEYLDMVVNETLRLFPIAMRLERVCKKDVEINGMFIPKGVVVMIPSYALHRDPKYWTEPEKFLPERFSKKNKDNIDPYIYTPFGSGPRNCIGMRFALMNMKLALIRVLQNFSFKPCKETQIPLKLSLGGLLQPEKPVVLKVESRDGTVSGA

[5] = target: T2, P450 2A6dH (Homo sapiens (Human), UniProt P11509, INS494HHHH)
T2 sequence (P11509 other isoform, or with tags, fused parts or gaps 1-28 replaced by MAKKTS/ins HHHH behind 494): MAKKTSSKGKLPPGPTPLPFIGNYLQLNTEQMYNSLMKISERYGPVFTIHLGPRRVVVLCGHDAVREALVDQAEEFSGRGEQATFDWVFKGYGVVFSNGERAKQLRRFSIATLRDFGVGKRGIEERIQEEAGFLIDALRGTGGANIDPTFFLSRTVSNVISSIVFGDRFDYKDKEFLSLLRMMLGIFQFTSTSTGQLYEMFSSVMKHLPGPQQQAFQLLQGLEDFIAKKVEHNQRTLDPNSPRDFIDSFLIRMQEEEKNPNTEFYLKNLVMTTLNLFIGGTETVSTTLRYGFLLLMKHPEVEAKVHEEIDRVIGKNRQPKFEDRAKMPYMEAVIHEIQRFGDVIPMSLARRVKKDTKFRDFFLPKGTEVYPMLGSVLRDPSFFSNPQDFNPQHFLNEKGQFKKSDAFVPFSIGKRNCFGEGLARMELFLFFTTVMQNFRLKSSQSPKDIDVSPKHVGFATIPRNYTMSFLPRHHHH
Method: (§1) Subsequently, test compound (in 100% ethanol, 10 μM) was added to both the cuvettes. The maximal ethanol concentration used was 2%. The difference spectra were obtained after the system reached equilibrium (3 min). All spectra were recorded at 25° C.

[6] = target: T3, human CYP2A6 (Homo sapiens (Human), UniProt P11509)
[7] = target: CYP2B6 (Homo sapiens (Human), UniProt P20813); assay: CYP2B6 Vivid blue substrate O-dealkylation inhibition; assay type: biochemical
CYP2B6, sequence (P20813 whole entry): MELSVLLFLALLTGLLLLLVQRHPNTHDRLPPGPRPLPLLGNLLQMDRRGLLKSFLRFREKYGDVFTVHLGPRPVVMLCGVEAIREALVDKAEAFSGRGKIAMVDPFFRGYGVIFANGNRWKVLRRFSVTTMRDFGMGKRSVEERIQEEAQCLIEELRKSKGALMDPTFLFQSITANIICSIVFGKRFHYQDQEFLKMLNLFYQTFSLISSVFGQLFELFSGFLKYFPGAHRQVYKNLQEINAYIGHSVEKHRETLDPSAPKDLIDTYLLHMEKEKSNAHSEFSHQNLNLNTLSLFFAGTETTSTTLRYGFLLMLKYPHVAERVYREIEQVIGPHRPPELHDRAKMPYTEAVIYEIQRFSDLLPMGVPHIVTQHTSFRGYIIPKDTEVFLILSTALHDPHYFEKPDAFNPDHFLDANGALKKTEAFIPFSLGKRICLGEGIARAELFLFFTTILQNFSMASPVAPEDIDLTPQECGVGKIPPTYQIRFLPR

[8] = target: CYP2C19 (Homo sapiens (Human), UniProt P33261); assay: CYP2C19 Vivid blue substrate O-dealkylation inhibition; assay type: biochemical
CYP2C19, sequence (P33261 whole entry): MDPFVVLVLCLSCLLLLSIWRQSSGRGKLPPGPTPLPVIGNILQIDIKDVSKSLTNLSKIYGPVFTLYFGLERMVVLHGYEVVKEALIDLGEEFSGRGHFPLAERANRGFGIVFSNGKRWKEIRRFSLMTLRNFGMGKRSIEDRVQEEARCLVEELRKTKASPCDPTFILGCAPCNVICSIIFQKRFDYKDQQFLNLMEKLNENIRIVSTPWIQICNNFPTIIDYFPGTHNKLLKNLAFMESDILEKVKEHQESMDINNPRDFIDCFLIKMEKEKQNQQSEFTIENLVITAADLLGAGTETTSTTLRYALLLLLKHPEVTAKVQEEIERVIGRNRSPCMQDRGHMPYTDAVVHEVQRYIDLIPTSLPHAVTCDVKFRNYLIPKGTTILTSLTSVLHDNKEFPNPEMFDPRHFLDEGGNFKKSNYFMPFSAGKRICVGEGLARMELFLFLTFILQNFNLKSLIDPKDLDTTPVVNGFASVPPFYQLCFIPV

[9] = target: CYP2E1 (Homo sapiens (Human), UniProt P05181); assay: CYP2E1 Vivid blue substrate O-dealkylation inhibition; assay type: biochemical
CYP2E1, sequence (P05181 whole entry): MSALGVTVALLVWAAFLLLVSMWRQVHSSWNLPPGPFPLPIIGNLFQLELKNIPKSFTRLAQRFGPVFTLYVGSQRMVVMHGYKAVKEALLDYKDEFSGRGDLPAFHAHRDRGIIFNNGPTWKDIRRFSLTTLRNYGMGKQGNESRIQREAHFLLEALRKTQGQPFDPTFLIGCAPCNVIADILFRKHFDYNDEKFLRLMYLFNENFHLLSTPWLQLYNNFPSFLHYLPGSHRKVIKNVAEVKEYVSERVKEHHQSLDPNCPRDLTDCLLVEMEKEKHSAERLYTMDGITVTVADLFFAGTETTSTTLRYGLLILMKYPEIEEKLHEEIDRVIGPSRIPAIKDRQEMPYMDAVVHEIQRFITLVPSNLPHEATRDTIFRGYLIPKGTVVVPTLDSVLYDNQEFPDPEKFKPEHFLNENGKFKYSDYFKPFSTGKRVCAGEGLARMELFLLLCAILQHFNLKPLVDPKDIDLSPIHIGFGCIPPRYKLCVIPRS

[10] = Mouse liver microsome stability assay; conditions: mouse liver microsomes; for half-life at 40 μM: mouse, pH 7.4; for MLM t1/2: 40 μM test compound
Method: The residue was reconstituted in methanol (200 μL), centrifuged at 13,000 rpm for 5 min and the supernatant was analyzed by high-performance liquid chromatography with an Axxi-chrom (straight-phase) silica column (4.6 mm×250 mm, 5 μm) or with a Supelco (reverse-phase) HS F5 pentafluorophenyl column (4.6 mm×250 mm, 5 μm).

[11] = target: CYP2D6 (Homo sapiens (Human), UniProt P10635); assay: CYP2D6 Vivid blue substrate O-dealkylation inhibition; assay type: biochemical
CYP2D6, sequence (P10635 whole entry): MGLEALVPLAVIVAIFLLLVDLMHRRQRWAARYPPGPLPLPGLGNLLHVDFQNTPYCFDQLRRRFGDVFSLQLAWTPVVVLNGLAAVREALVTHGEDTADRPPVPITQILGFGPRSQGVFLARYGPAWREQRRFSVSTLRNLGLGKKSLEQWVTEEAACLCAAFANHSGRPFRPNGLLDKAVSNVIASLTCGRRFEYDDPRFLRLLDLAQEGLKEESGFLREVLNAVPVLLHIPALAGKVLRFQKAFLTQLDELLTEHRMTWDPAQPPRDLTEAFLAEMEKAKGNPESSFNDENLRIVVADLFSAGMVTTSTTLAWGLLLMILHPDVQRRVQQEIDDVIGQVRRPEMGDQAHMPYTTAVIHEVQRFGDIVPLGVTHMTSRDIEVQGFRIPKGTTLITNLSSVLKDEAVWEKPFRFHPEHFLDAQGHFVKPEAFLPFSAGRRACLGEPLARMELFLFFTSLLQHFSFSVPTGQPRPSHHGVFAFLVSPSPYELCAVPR

[12] = Human liver microsome stability assay; conditions: human liver microsomes; for half-life at 40 μM: human, pH 7.4
[13] = target: T3, human CYP2A6; assay: CYP2A6 mediated coumarin 7-hydroxylation inhibition
[14] = target: Ach binding protein (AchBP) (Lymnaea stagnalis (Great pond snail) (Helix stagnalis), UniProt P58154); conditions: for binding to the AchBP (in words): fluorescence quenching; for AchBP: intrinsic fluorescence quenching, 20 nM AchBP
Ach binding protein (AchBP), sequence (P58154 20-229 limits assumed): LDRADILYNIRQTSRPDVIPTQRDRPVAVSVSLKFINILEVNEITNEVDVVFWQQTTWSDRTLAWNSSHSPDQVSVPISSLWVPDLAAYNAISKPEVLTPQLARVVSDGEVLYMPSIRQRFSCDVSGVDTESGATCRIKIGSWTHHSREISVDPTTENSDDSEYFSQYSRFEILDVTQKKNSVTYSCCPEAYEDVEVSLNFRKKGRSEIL
Description: To examine the degree of interaction with the nicotinic acetylcholine receptor, we examined the binding interaction of the synthetic inhibitors with the Ach binding protein (AchBP) from the fresh water snail (Table 3).

[15] = target: T1, CYP2A13; assay: in vitro
[16] = target: CYP2C9 relative to CYP2A6 (Homo sapiens (Human), UniProt P11712); assay: CYP2C9 Vivid blue substrate O-dealkylation inhibition; assay type: biochemical; conditions: human, recombinant CYP2C9 BACULOSOMES, pH 8, probe Vivid blue substrate (10 μM), O-dealkylation; read-out: 2C9/2A6 selectivity ratio (IC50 CYPX/IC50 CYP2A6)
[17] = target: CYP3A4 relative to CYP2A6 (Homo sapiens (Human), UniProt P08684); assay: in vitro; conditions: human; for selectivity ratio at 30 min: pH 7.5
CYP3A4 relative to CYP2A6, sequence (P08684 whole entry, the tested form may be a part): as the sequence (P08684 whole entry) above

[18] = target: T2, P450 2A6dH; assay: Difference spectra of test compounds with N-terminal truncated CYP2A6; conditions: for λmax / λmin: difference spectrum; for binding type: difference spectrum with truncated CYP2A6
Method: as §1

[19] = target: CYP2B6 relative to CYP2A6 (Homo sapiens (Human), UniProt P20813); assay: CYP2B6 Vivid blue substrate O-dealkylation inhibition; assay type: biochemical; conditions: human, recombinant CYP2B6 BACULOSOMES, pH 8, probe Vivid blue substrate (5 μM), O-dealkylation; read-out: 2B6/2A6 selectivity ratio (IC50 CYPX/IC50 CYP2A6)
CYP2B6 relative to CYP2A6, sequence (P20813 whole entry): as the sequence (P20813 whole entry) above

[20] = target: CYP2C19 relative to CYP2A6 (Homo sapiens (Human), UniProt P33261); assay: CYP2C19 Vivid blue substrate O-dealkylation inhibition; assay type: biochemical; conditions: human, recombinant CYP2C19 BACULOSOMES, pH 8, probe Vivid blue substrate (10 μM), O-dealkylation; read-out: 2C19/2A6 selectivity ratio (IC50 CYPX/IC50 CYP2A6)
[21] = target: CYP2E1 relative to CYP2A6 (Homo sapiens (Human), UniProt P05181); assay: CYP2E1 Vivid blue substrate O-dealkylation inhibition; assay type: biochemical; conditions: human, recombinant CYP2E1 BACULOSOMES, pH 8, probe Vivid blue substrate (10 μM), O-dealkylation; read-out: 2E1/2A6 selectivity ratio (IC50 CYPX/IC50 CYP2A6)
CYP2E1 relative to CYP2A6, sequence (P05181 whole entry): as the sequence (P05181 whole entry) above

[22] = target: CYP2D6 relative to CYP2A6 (Homo sapiens (Human), UniProt P10635); assay: CYP2D6 Vivid blue substrate O-dealkylation inhibition; assay type: biochemical; conditions: human, recombinant CYP2D6 BACULOSOMES, pH 8, probe Vivid blue substrate (10 μM), O-dealkylation; read-out: 2D6/2A6 selectivity ratio (IC50 CYPX/IC50 CYP2A6)
CYP2D6 relative to CYP2A6, sequence (P10635 whole entry): as the sequence (P10635 whole entry) above

[23] = target: T3, human CYP2A6; assay: biochemical
[24] = target: Microsomal Human CYP2A6 (Homo sapiens (Human), UniProt P11509); assay: Microsomal human CYP2A6-mediated nicotine oxidase activity
Method: For each determination, cold microsomes (of predetermined CYP2A6 activity) was added to the NADPH-generating system containing 50 mM Tris (pH=7.4) and DETAPAC (to prevent metal-catalyzed autooxidation) and inhibitor. Because rat liver cytosol has little CYP2A6 activity and high levels of aldehyde oxidase, 0.2 mg/incubation was used to quantitatively convert the nicotine iminium ion to cotinine. […] For initial evaluation of a large number of samples, [^3]H-nicotine was used in a TLC/radiometric format. […] Quantification of scrapped bands was by scintillation counting.

[25] = tested on: male Wistar rats; assay: Nicotine self-administration in nicotine-addicted rats; assay type: in vivo, rat
[26] = target: Acetylcholine Binding Protein (Lymnaea stagnalis (Great pond snail) (Helix stagnalis), UniProt P58154); design: species or system Lymnaca stagnalis
Acetylcholine Binding Protein, sequence (P58154 20-229 limits assumed): as the sequence (P58154 20-229 limits assumed) above

[27] = Table 4, unit inferred, read-out: 2C9 IC50 ± SD
[28] = Table 4, unit inferred, read-out: 2B6 IC50 ± SD
[29] = Table 4, unit inferred, read-out: 2C19 IC50 ± SD
[30] = Table 4, unit inferred, read-out: 2E1 IC50 ± SD
[31] = Table 4, unit inferred, read-out: 2D6 IC50 ± SD
[32] = read-out: CYP2A6 IC50, coumarin 7-hydroxylation
[33] = read-out: 2A6 IC50 ± SD, Table 4, unit not given (same data in Table 1 in μM)

T1 sequence (Q16696 whole entry): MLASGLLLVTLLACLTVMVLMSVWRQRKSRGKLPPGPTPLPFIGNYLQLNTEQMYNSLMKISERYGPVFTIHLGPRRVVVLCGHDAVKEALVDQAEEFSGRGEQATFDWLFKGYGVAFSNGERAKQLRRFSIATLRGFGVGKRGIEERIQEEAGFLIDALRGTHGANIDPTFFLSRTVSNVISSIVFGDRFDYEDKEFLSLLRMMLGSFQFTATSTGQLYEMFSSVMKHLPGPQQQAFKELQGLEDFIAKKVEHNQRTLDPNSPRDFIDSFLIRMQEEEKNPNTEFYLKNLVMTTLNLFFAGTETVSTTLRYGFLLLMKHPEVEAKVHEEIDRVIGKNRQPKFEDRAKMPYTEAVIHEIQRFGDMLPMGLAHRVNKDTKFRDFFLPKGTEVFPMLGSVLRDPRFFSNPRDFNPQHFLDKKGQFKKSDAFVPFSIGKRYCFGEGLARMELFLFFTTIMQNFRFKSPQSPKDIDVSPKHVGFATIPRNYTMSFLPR
mouse CYP2A5, sequence (P20852 whole entry): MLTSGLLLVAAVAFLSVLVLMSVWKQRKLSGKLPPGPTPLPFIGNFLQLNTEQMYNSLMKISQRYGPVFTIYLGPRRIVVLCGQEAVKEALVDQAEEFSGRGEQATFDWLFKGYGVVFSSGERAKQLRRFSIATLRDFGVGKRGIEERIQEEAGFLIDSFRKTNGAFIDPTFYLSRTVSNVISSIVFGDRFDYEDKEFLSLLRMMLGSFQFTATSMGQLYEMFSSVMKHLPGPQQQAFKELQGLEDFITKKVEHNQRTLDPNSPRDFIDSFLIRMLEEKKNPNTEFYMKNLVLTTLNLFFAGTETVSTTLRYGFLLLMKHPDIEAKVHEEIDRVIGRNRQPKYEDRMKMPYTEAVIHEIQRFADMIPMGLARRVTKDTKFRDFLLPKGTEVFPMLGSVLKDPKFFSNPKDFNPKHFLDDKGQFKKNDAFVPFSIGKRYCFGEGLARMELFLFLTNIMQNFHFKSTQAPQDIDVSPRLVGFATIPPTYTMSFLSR

Cc1ccsc1-c1cccnc1 [TD-II-025]
IC50 [1]: 0.3 µM
IC50 [2]: ~1 µM
inhibition at 1 µM [2]: 51%

NCc1ccc(-c2cccnc2)o1 [Compound 2a]
IC50 [3, 27]: 11.7 ± 2.2 µM
IC50 [4]: 47.1 ± 18.1 µM
binding type [5]: Type II
λmax [5]: 428 nm
λmin [5]: 409 nm
IC50 [6]: 0.27 ± 0.02 µM
2B6/2A6 selectivity ratio (IC50 CYPX/IC50 CYP2A6) [7]: 707
IC50 [7, 28]: 191 ± 24 µM
IC50 [8, 29]: 22 ± 1.6 µM
2E1/2A6 selectivity ratio (IC50 CYPX/IC50 CYP2A6) [9]: 637
IC50 [9, 30]: 172 ± 52 µM
half-life at 40 μM [10]: 37 min
2D6/2A6 selectivity ratio (IC50 CYPX/IC50 CYP2A6) [11]: 42
IC50 [11, 31]: 11.3 ± 2.6 µM
half-life at 40 μM [12]: 37 min

OCC1CCC(c2cccnc2)O1 (stereo not shown) [Compound 69]
IC50 [13, 32]: 61.4 ± 17.7 µM
binding to the AchBP (in words) [14]: non-binders
AchBP [14]: −

O/N=C/c1ccc(-c2cccnc2)o1 [TD-II-065 ESP trans isomer]
IC50 ([6]; human, pH 7.5): 4.24 ± 0.49 µM
inhibition at 1 µM [15]: 41%

CN(C)Cc1ccc(-c2cccnc2)s1 [Compound 1c]
IC50 [3, 27]: 206 ± 23 µM
selectivity ratio at 40 min [16]: 1.5
IC50 [4]: 219 ± 23 µM
selectivity ratio at 30 min [17]: 1.6
λmax [18]: 428 nm
λmin [18]: 411 nm
binding type [18]: Type II
IC50 [13, 33]: 133 ± 21 µM
IC50 [7, 28]: > 400 µM
selectivity ratio at 40 min [19]: > 3
selectivity ratio at 40 min [20]: 0.8
IC50 [8, 29]: 106 ± 18 µM
selectivity ratio at 40 min [21]: > 3
IC50 [9, 30]: > 400 µM
half-life at 40 μM [10]: 343 min
selectivity ratio at 40 min [22]: 0.2
IC50 [11, 31]: 28.7 ± 4.1 µM
HLM t1/2 ([12]; 40 μM test compound): Stable^a

CN1CCCC1c1cccnc1 (stereo not shown) [Compound 54]
IC50 [4]: 142 ± 15.7 µM
selectivity ratio ([17]; pH 7.5, Selectivity Ratio: IC50 (Inhibition of CYP3A4)/IC50 (Inhibition of CYP2A6)): 5
IC50 [23]: 26.3 ± 3.4 µM

BrCC1CCC(c2cccnc2)O1 (stereo not shown) [Compound 32]
IC50 [24]: 0.36 ± 0.18 µM

O/N=C/c1ccc(-c2cccnc2)o1 [Compound 39]
IC50 ([4]; human, pH 7.5): > 400 µM
IC50 [23]: 9.75 ± 0.91 µM

CNCc1ccc(-c2cccnc2)s1 [Compound 1b]
IC50 [3, 27]: 67.7 ± 3.7 µM
IC50 [4]: > 400 µM
λmax [18]: 430 nm
λmin [18]: 410 nm
binding type [18]: Type II
IC50 [13, 33]: 1.1 ± 0.13 µM
IC50 [7, 28]: > 400 µM
IC50 [8, 29]: 59.8 ± 6.5 µM
IC50 [9, 30]: > 400 µM
MLM t1/2 [10]: Stable^a
IC50 [11, 31]: 113 ± 19 µM
half-life at 40 μM [12]: 96 min

CNCc1ccc(-c2cccnc2)o1 [Compound 2b]
IC50 [3, 27]: 76.1 ± 9.1 µM
selectivity ratio at 40 min [16]: 48
IC50 [4]: > 400 µM
selectivity ratio at 30 min [17]: > 250
λmax [18]: 431 nm
λmin [18]: 411 nm
binding type [18]: Type II
IC50 [13, 33]: 1.6 ± 0.34 µM
IC50 [7, 28]: 358 ± 22 µM
selectivity ratio at 40 min [19]: 224
selectivity ratio at 40 min [20]: 19
IC50 [8, 29]: 30.6 ± 4.1 µM
selectivity ratio at 40 min [21]: > 250
IC50 [9, 30]: > 400 µM
MLM t1/2 [10]: Stable^a
selectivity ratio at 40 min [22]: 57
IC50 [11, 31]: 90.6 ± 7.8 µM
half-life at 40 μM [12]: 66 min

NCc1ccc(-c2cccnc2)o1 [TD-II-063]
inhibition at 1 µM [15]: 29%
IC50 [1]: 0.6 µM

NCc1ccc(-c2cccnc2)o1 [Compound 2]
selectivity ratio at 30 min [17]: 174
CYP2A6 inhibition (in words) [6]: significant inhibition
IC50 ([6]; human, pH 7.5): 0.268 ± 0.021 µM
in vivo activity against nicotine self-administration (in words) ([25]; nicotine addicted rats): significant in vivo activity
decrease of nicotine self-administration ([25]; rat, day 50, dihydrochloride salts in sterile saline, compound 2 16 mg/kg, compound 14 15 mg/kg): 70%

NCc1ccc(-c2cccnc2)o1 [(5-(pyridin-3-yl)furan-2-yl)methanamine]
% of Control [26]: 20%

CNCc1ccc(-c2cccnc2)s1 [TD-IV-073 30]
IC50 [13, 32]: 1.1 ± 0.13 µM
IC50 [1]: 0.9 µM
inhibition at 1 µM [2]: 17%

Cc1ccsc1-c1cccnc1 [Compound 4]
half-life at 40 μM [10]: 41 min
half-life at 40 μM [12]: 32 min

c1cncc(-c2ccc(CNCc3ccc(-c4cccnc4)s3)s2)c1 [bis((5-(pyridin-3-yl)thiophen-2-yl)methyl)amine]
% of Control [26]: 10%

NCC1CCC(c2cccnc2)O1 (racemic) [Compound 38]
Selectivity ratio (IC50 CYPX/IC50 CYP2A6) 2C9/2A6 ([3]; human CYP2C9 versus human CYP2A6): 56
IC50 ([3]; read-out: IC50 ± SD 2C9, insect cell microsomes expressing CYP2C9, 0.2M potassium phosphate buffer, mean of at least 3 determinations ± SD): 208 ± 21 µM
IC50 ([4]; human, microsomes, pH 7.5): 77.5 ± 14.6 µM
Selectivity ratio (IC50 CYPX/IC50 CYP2A6) 3A4/2A6 ([4]; human, pH 7.5): 21
CYP2A6 inhibition (in words) [6]: significantly diminished
Selectivity ratio (IC50 CYPX/IC50 CYP2A6) 2B6/2A6 ([7]; human CYP2B6 versus human CYP2A6): 69
IC50 ([7]; read-out: IC50 ± SD 2B6, insect cell microsomes expressing CYP2B6, 0.2M potassium phosphate buffer, mean of at least 3 determinations ± SD): 256 ± 29 µM
Selectivity ratio (IC50 CYPX/IC50 CYP2A6) 2C19/2A6 ([8]; human CYP2C19 versus human CYP2A6): 62
IC50 ([8]; read-out: IC50 ± SD 2C19, insect cell microsomes expressing CYP2C19, 0.2M potassium phosphate buffer, mean of at least 3 determinations ± SD): 233 ± 21 µM
binding to the AchBP (in words) [14]: modest binding avidity
AchBP [14]: +
Selectivity ratio (IC50 CYPX/IC50 CYP2A6) 2E1/2A6 ([9]; human CYP2E1 versus human CYP2A6): 21
IC50 ([9]; read-out: IC50 ± SD 2E1, insect cell microsomes expressing CYP2E1, 0.2M potassium phosphate buffer, mean of at least 3 determinations ± SD): 77.5 ± 14.6 µM
IC50 [24]: 5.21 ± 1.68 µM
Selectivity ratio (IC50 CYPX/IC50 CYP2A6) 2D6/2A6 ([11]; human CYP2D6 versus human CYP2A6): 53
IC50 ([11]; read-out: IC50 ± SD 2D6, insect cell microsomes expressing CYP2D6, 0.2M potassium phosphate buffer, mean of at least 3 determinations ± SD): 197 ± 21 µM

CN1CCCC1c1cccnc1 (stereo not shown) [Compound 54, Nicotine]
Ki [23]: 4.4 ± 0.6 µM

NCc1ccc(-c2cccnc2)s1 [TD-II-039]
IC50 [1]: 0.5 µM

c1cncc(-c2ccsc2)c1 [TD-I-145]
IC50 ([6]; human, pH 7.5): 1.37 ± 0.23 µM
inhibition at 1 µM [15]: 12%
IC50 [1]: 0.8 µM

CCC1CCC(c2cccnc2)O1 (stereo not shown) [Compound 44]
IC50 [13, 32]: 13.6 ± 3.48 µM
IC50 [24]: 0.02 ± 0.02 µM
inhibition of microsomal nicotine oxidase (in words) [24]: quite potent

CNCC#Cc1cccnc1 [TD-IV-091 41]
inhibition at 1 µM [15]: 2%

CC(=O)SCc1ccc(-c2cccnc2)o1 [TD-V-099]
IC50 [23]: 1.8 ± 0.3 µM
inhibition at 1 µM [2]: 13%

NC1CC1c1cccnc1 (stereo not shown) [2-(pyridin-3-yl)cyclopropanamine]
% of Control [26]: 8%

Cc1cscc1-c1cccnc1 [TD-I-103]
IC50 ([6]; human, pH 7.5): 1.85 ± 0.5 µM
IC50 [1]: 0.75 µM

— patent publication US8609708B2 (Human BioMolecular Research Institute, priority 2003, dated 2013)
